Measurements: patent US20240115705A1, “Regulation of Butyrophilin subfamily 3 member A1 (BTN3A1, CD277)” (The J. Gladstone Institutes, a testamentary trust …, priority 2021, published 2024)
Where two headings read alike, the source gives them in different places.

Test system: Daudi-Cas9 cells
Assay: Cancer-T cell co-culture genome-wide CRISPR knockout screen (Vγ9Vδ2 T cell killing)
Format: cell-based, human
[1] = MAGeCK sgRNA test, co-culture screen
[2] = log-fold change of sgRNA, surviving cells after co-culture vs baseline, MAGeCK
[3] = sgRNA abundance in surviving Daudi-Cas9 KO cells after 24 hours Vγ9Vδ2 T cell co-culture with zoledronate, MAGeCK
[4] = sgRNA enriched (TRUE) or depleted (FALSE) after T cell co-culture

Row | Substance | score [1] | LFC [2] | treat mean [3] | high_in_treatment [4] | LFC | high_in_treatment | score | treat mean
1 | OIP5_CGACTCGGTGCACCTCGCC: library sgRNA targeting OIP5 (as printed in the source, key not given here) | 6.3045 | −7.255 | 16.543 | FALSE | – | – | – | –
2 | ARL14EPL_TTAATAGCAACAAATAGAG: library sgRNA targeting ARL14EPL (listed as DNA, chemistry not fully specified) | 7.215 | 3.9422 | 227.01 | TRUE | – | – | – | –
3 | SPI1_ATACTCGTGCGTTTGGCGT: library sgRNA targeting SPI1 (as printed in the source, key not given here) | 8.1546 | 1.1261 | 6915.7 | TRUE | – | – | – | –
4 | FBXW7_AGGTTTCATACACAGTCCA: library sgRNA targeting FBXW7 (as printed in the source, key not given here) | 7.629 | 1.4859 | 3314.5 | TRUE | – | – | – | –
5 | GSS_ACCCCAGCTGTGCACCGGT: library sgRNA targeting GSS (listed as DNA, chemistry not fully specified) | 6.1722 | −4.0666 | 169.48 | FALSE | – | – | – | –
6 | WDR61_ATTCCATCTATGGCTCCAC: library sgRNA targeting WDR61 (as printed in the source, key not given here) | 6.193 | −9.1046 | 2.9058 | FALSE | – | – | – | –
7 | SNF8_ACCATTGGCGTGGATCCGC: library sgRNA targeting SNF8 (as printed in the source, key not given here) | 6.4788 | −6.2459 | 35.261 | FALSE | – | – | – | –
8 | IRF1_CTAGGCCGATACAAAGCAG: library sgRNA targeting IRF1 (as printed in the source, key not given here) | 9.7786 | 1.6906 | 4103.9 | TRUE | – | – | – | –
9 | BTN2A2_TGTGCACTGGTCTCAGGTA: library sgRNA targeting BTN2A2 (listed as DNA, chemistry not fully specified) | 13.201 | 2.0744 | 4689.1 | TRUE | – | – | – | –
10 | IFFO1_GGCCTGGGTCGTCGCGACC: library sgRNA targeting IFFO1 (as printed in the source, key not given here) | 5.9717 | 4.5353 | 68.011 | TRUE | – | – | – | –
11 | RPP38_CGATTCTCTCACTGAGCCG: library sgRNA targeting RPP38 (as printed in the source, key not given here) | 7.8058 | −3.1996 | 558.49 | FALSE | – | – | – | –
12 | BTN2A1_TCTCCATGCCTGATGCAGA: library sgRNA targeting BTN2A1 (listed as DNA, chemistry not fully specified) | 11.104 | 1.6551 | 5566.5 | TRUE | – | – | – | –
13 | BTN3A1_AGAGTTGAGAGAAATGGCA: library sgRNA targeting BTN3A1 (listed as DNA, chemistry not fully specified) | 18.173 | 2.7951 | 4251.1 | TRUE | – | – | – | –
14 | SAE1_TGCTTCTTGTCGGCTTGAA: library sgRNA targeting SAE1 (listed as DNA, chemistry not fully specified) | 7.1879 | −7.4222 | 19.337 | FALSE | – | – | – | –
15 | FCRL2_ACTATTTCTGTAGTACCAA: library sgRNA targeting FCRL2 (listed as DNA, chemistry not fully specified) | 6.1577 | 2.9186 | 417.46 | TRUE | – | – | – | –
16 | IRF1_TGCCTGTTTGTTCCGGAGC: library sgRNA targeting IRF1 (as printed in the source, key not given here) | 11.386 | 1.4325 | 8072.2 | TRUE | – | – | – | –
17 | ABCF1_AGCATCTCCGCTCATGGCA: library sgRNA targeting ABCF1 (listed as DNA, chemistry not fully specified) | 5.9741 | −2.7126 | 504.57 | FALSE | – | – | – | –
18 | RFXAP_AGACACTTCGGACCCTCCG: library sgRNA targeting RFXAP (listed as DNA, chemistry not fully specified) | 10.922 | 1.5343 | 6378.3 | TRUE | – | – | – | –

Row | Substance | score [1] | LFC [2] | treat mean [3] | high_in_treatment [4] | LFC | high_in_treatment | score | treat mean
19 | SHMT2_CAACCTCACGACCGGATCA: library sgRNA targeting SHMT2 (listed as DNA, chemistry not fully specified) | 5.9975 | −5.253 | 63.415 | FALSE | – | – | – | –
20 | SH3GL1_ACTTCTGTCACCGCCTTGC: library sgRNA targeting SH3GL1 (listed as DNA, chemistry not fully specified) | 6.045 | −7.484 | 11.374 | FALSE | – | – | – | –
21 | MED26_CCTCGGAACTCACGGCATG: library sgRNA targeting MED26 (as printed in the source, key not given here) | 6.025 | −1.9192 | 1185.6 | FALSE | – | – | – | –
22 | UGGT2_TTCGCAATCTTGGGATCAA: library sgRNA targeting UGGT2 (listed as DNA, chemistry not fully specified) | 8.3503 | 1.6772 | 3035.8 | TRUE | – | – | – | –
23 | GTF2A2_AGCACTGGCTCAGAGGGTC: library sgRNA targeting GTF2A2 (listed as DNA, chemistry not fully specified) | 6.6409 | −6.616 | 29.574 | FALSE | – | – | – | –
24 | NLRC5_AGTCACGTGTCCTACCGTC: library sgRNA targeting NLRC5 (listed as DNA, chemistry not fully specified) | 6.4705 | 1.0275 | 5262.4 | TRUE | – | – | – | –
25 | CCDC82_AAGAGCTTGATAGTAACAA: library sgRNA targeting CCDC82 (listed as DNA, chemistry not fully specified) | 7.3303 | 4.8194 | 83.034 | TRUE | – | – | – | –
26 | BTN2A1_TCTTGGAAGTAACAGCGGT: library sgRNA targeting BTN2A1 (listed as DNA, chemistry not fully specified) | 18.758 | 2.4492 | 6366.6 | TRUE | – | – | – | –
27 | SLC2A4_CAGGTCTGAAGCGCCTGAC: library sgRNA targeting SLC2A4 (listed as DNA, chemistry not fully specified) | 6.0044 | 4.6166 | 47.773 | TRUE | – | – | – | –
28 | PNLIPRP1_GCCCCTGAAAATTCTCCCC: library sgRNA targeting PNLIPRP1 (chemistry not given here) | – | – | – | – | −2.1878 | FALSE | 7.0018 | 1182.9
29 | FBXW7_TGAAGTCTCGTTGAAACTG: library sgRNA targeting FBXW7 (as printed in the source, key not given here) | 6.8093 | 1.4811 | 2652.5 | TRUE | – | – | – | –
30 | SPIB_GCTAGCGAAGTTCTCCGTG: library sgRNA targeting SPIB (as printed in the source, key not given here) | 8.8597 | 1.4916 | 4447.4 | TRUE | – | – | – | –
31 | EEFSEC_TCATCCGGACCATCATCGG: library sgRNA targeting EEFSEC (listed as DNA, chemistry not fully specified) | 6.18 | −4.9819 | 83.299 | FALSE | – | – | – | –
32 | ZC3H12A_CCGTGACCTCCAAGGCGAG: library sgRNA targeting ZC3H12A (listed as DNA, chemistry not fully specified) | 6.507 | 1.2168 | 3712.6 | TRUE | – | – | – | –
33 | SHMT2_TGCTCGACTTTTCCGGCCA: library sgRNA targeting SHMT2 (listed as DNA, chemistry not fully specified) | 6.1486 | −3.7292 | 220.66 | FALSE | – | – | – | –
34 | SPIB_GGGTACGGGGCATATGCCG: library sgRNA targeting SPIB (as printed in the source, key not given here) | 10.693 | 1.7824 | 4360 | TRUE | – | – | – | –
35 | BLQC1S1_ACCAAAGCTTCTGTCAGGC: library sgRNA targeting BLQC-1S1 (listed as DNA, chemistry not fully specified) | 6.0173 | −1.8638 | 1264.6 | FALSE | – | – | – | –
36 | BTN3A1_TGCTGCTTCTTGGGGGAGC: library sgRNA targeting BTN3A1 (listed as DNA, chemistry not fully specified) | 17.532 | 2.0651 | 8413.1 | TRUE | – | – | – | –
